The values that follow come from patent publication US6828462B2, “Unsaturated 1-amino-alkylcyclohexane NMDA, 5HT3, and neuronal nicotinic receptor antagonists” (Merz Pharma GmbH & Co. KGAA, priority 2001, dated 2004).

The subject of one data set is ataxia (rotarod). The experiment in a line: Accelerating rotarod test, ataxia (motor coordination). In kind it is in vivo, mice. The following applies: ED50 ataxia divided by ED50 MES. How it is done: (§1) NMR female mice (18-28 g) housed 5 per cage were used for the maximal electroshock (MES) and motor impairment tests. All animals were kept with water and food ad libitum under a 12 hour light-dark cycle (light on at 6 a.m.) and at a controlled temperature (20±0.5C). All experiments were performed between 10 a.m. and 5 p.m. Tested agents were injected 30 min. i.p. before the induction of convulsions if not stated otherwise (see below). All compounds were dissolved in 0.9% saline.
(§2) The MES test was performed together with tests for myorelaxant action (traction reflex) and motor coordination (rotarod). For the traction reflex test mice were placed with their forepaws on a horizontal rod and were required to place all 4 paws on the wire within 10 seconds. To test ataxia (motor coordination) mice were placed on an accelerating rotarod and were required to remain on the rod for 1 minute. […] These tests were followed by MES (100 Hz, 0.5 second shock duration, 50 mA shock intensity, 0.9 ms impulse duration, Ugo Basile) applied through corneal electrodes. The presence of tonic convulsions was scored (tonic extension of hind paws with minimum angle to the body of 90). The aim was to obtain ED50s for all parameters scored (anticonvulsive activity and motor side effects) with use of the Litchfield Wilcoxon test for quantal dose responses. Division of the ED50 for side effects (ataxia or myorelaxation) by the ED50 for antagonism of electroshock convulsions was used as a therapeutic index (TI).
(§3) 4-7 doses of antagonists were tested in each of the in vivo tests (5-8 animals per dose) to allow calculation of graded ED50s according to probit analysis (Litchfield and Wilcoxon) with correction for 0% to 100% effects. ED50s are presented with 95% confidence limits (Cl). Pearson product moment correlation analysis (Sigma Stat, Jandel Scientific) was used to compare in vitro potencies and in vivo anticonvulsant activity.

Assay in data set [1]: as above
The format is in vivo, mice. The following applies: mouse, in vivo, ip; NMR female mice, accelerating rotarod. How it is done:
as §1, §2, §3
In general terms: The rotarod test checks motor coordination on a turning rod.

For data set [2], the target named is NMDA receptor ([3H]-(+)-MK-801 site) (Rattus norvegicus, UniProt P35439). The experiment in a line: [3H]-(+)-MK-801 receptor binding, rat cortex membranes.
A further data set has as its target T1, NR1a/2A receptors (Homo sapiens, UniProt Q05586+Q12879).
T1 construct: expressed in transfected cells; host or cells: Xenopus laevis oocytes injected with subunit RNA
The experiment in a line: NMDA receptor blockade in Xenopus oocytes, two-electrode voltage clamp. The format is cell-based. The settings on record: Xenopus oocytes expressing NR1a/2A. How it is done:
Mature female Xenopus laevis were anaesthetized in 0.2% Tricaine on ice for 15 min prior to surgery. Oocytes were removed and incubated in 2 mg/ml collagenase (type II) in Ca^2+-free oocyte Ringer solution (82.5 mM NaCl, 2 mM KCl, 2 mM MgCl2, 5 mM HEPES, pH 7.5) for 30 min. at room temperature and washed thoroughly with OR-2 (100 mM NaCl, 2 mM KCl, 1 mM MgCl2, 2 mM CaCl2, 5 mM HEPES, pH 7.5). The remaining follicle cell layer was removed manually with fine forceps and the oocytes were kept in OR-2. The RNA was dissolved in DEPC-treated, sterile distilled water. RNA for the NMDA NR1a subunit was mixed 1:1 with RNA for the NR2A subunit. Likewise neuronal nicotinic α4 RNA was mixed 1:1 with RNA for the β2 subunit. […]
Only results from stable cells were accepted for inclusion in the final analysis i.e. showing at least 50% recovery of responses to NMDA following removal of the antagonist tested. […] All antagonists were assessed at steady-state blockade with 6 to 7 concentrations on at least 4 cells. […]
Kinetic experiments were performed by applying various concentrations of unsaturated amino-alkyl-cyclohexanes (normally 5 in a log 3 dosing regime) for 10-20 seconds in the continuous presence of glutamate (100 μM and glycine 10 μM) for 90-180 seconds in Xenopus oocytes expressing NR1a/2A receptors. […] Voltage-dependency was then determined by comparing the glutamate and glutamate plus antagonist curves. […]

Data set [3] has as its system myorelaxation (traction reflex). The experiment in a line: Traction reflex test, myorelaxant action. The following applies: ED50 myorelaxation divided by ED50 MES. In kind it is in vivo, mice. On the procedure:
as §1, §2, §3

Data set [4] is described as follows: Traction reflex test, myorelaxant action. The settings on record: mouse, in vivo, ip; NMR female mice, i.p., traction reflex; read-out: Myorelaxation ED50. The format is in vivo, mice. On the procedure:
as §1, §2, §3

Data set [5] concerns maximal electroshock (MES) tonic convulsions. Briefly: Maximal electroshock (MES) test, anticonvulsive activity. In kind it is in vivo, mice. The following applies: Mus musculus, ip, read-out: MES ED50. How it is done:
as §1, §2, §3
On the technique in general: In the maximal electroshock model the usual endpoint is tonic extension of the hind limbs.

For another data set, the target named is T2, NMDA receptors (Rattus norvegicus, UniProt P35439).
T2 construct: Patch clamp recordings were made from these neurones; endogenous in cells; host or cells: primary cultured hippocampal neurones from rat embryos (E20 to E21)
The experiment in a line: Patch clamp, NMDA-induced currents in hippocampal neurones. The format is cell-based. Background: In patch-clamp work, channel activity is measured electrically.

Setting [6] is: NMR female mice, i.p. 30 min before convulsions.
The mark [7] stands for this setting: Table 1, mean, N=6, read-out: NMDA IC50.

Read-outs that look alike come from different tables or passages of the source.

T1 sequence (Q12879 23-1464, other chains not shown): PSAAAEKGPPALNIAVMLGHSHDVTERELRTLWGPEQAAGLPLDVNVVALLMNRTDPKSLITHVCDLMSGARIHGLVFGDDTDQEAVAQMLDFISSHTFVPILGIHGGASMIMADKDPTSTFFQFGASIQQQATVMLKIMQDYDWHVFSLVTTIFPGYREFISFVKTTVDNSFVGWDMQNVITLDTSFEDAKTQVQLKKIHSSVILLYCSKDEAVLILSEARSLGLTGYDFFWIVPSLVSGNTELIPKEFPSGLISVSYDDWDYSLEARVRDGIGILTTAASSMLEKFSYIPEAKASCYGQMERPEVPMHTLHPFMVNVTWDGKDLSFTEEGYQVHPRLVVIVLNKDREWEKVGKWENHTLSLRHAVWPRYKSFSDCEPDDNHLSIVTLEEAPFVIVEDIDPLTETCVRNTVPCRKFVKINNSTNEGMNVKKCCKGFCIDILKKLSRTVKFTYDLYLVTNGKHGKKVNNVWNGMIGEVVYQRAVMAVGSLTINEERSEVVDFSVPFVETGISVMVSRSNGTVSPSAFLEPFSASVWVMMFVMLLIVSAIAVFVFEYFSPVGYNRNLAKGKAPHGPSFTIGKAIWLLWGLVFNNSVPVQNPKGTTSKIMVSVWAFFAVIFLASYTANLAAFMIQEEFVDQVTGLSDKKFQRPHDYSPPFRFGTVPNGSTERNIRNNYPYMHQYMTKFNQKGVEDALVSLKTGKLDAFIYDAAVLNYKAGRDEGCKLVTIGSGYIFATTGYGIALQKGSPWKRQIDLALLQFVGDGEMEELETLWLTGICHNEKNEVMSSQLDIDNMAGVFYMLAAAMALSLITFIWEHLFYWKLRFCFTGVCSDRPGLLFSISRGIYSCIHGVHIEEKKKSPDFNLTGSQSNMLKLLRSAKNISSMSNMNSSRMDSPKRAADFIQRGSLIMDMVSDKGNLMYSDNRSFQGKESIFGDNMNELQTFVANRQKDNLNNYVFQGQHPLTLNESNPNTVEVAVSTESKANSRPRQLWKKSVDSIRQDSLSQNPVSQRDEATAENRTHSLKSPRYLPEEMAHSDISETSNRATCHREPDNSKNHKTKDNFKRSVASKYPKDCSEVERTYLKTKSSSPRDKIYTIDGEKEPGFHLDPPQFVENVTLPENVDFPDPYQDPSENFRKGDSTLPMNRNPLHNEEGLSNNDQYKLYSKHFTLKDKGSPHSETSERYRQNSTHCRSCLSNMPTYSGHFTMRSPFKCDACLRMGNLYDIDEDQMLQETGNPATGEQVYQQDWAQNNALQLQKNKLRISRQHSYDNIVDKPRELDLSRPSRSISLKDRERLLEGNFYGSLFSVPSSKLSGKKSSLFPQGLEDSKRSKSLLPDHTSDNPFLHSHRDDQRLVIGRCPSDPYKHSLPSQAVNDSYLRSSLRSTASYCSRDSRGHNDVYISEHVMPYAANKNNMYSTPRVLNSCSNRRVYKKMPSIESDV

Broadly, the ED50 is the dose that gives a 50% effect, or the effect in half of the subjects. As usually defined, the Ki is a dissociation constant, usually derived from enzyme kinetics or from competition with a known ligand. Higher therefore signals weaker binding. Broadly, the IC50 is the concentration that gives 50% inhibition. Consider `C=CC1(N)CC(C)(C)CC(C)(C)C1` [MRZ 2/759, 1-Ethenyl-3,3,5,5-tetramethylcyclohexylamine], for which, in the data set on ataxia (rotarod), the “Therapeutic index (ataxia ED50 / MES ED50)” value was determined as 1.0. The values for the ED50 at 30 min in data set [1] and in data set [4] were 15 mg/kg and 12.8 mg/kg, respectively. In addition, in data set [2], the inhibition constant (Ki) stood at 1.18 µM. The IC50 worked out at 1.99 µM on NR1a/2A receptors (glutamate 100 μM, glycine 10 μM, -70 mV) and 3.28 µM on NMDA receptors (setting [7]). For the same compound, at NR1a/2A receptors (logistic fit of the concentration-blockade curve), the Hill came out at 0.75. For the same compound, the “Therapeutic index (myorelaxation ED50 / MES ED50)” value in data set [3] is on record as 0.9. Also, the ED50 in data set [5] (setting [6]) was 14.8 mg/kg. Further, the “use- and voltage-dependency of blockade” value at NMDA receptors (hippocampal neurones, NMDA-induced currents) is “clear use- and voltage-dependency”. For the same compound, the “Steady-state inward current responses to NMDA” value on NMDA receptors (hippocampal neurones, NMDA 200 μM with glycine 1 μM at -70 mV) is “antagonized”.

In the case of `CC1(C)CC(=CCCN)CC(C)(C)C1` [MRZ 2018, 3-(3,3,5,5-Tetramethylcyclohexylidene)propanamine], in the data set on ataxia (rotarod), the “Therapeutic index (ataxia ED50 / MES ED50)” value came to 0.3. Also, the ED50 at 30 min in data set [1] stood at 26.7 mg/kg; in data set [4], 29.4 mg/kg. The compound also gave a Ki in data set [2] of 20.2 µM. In data set [3], the “Therapeutic index (myorelaxation ED50 / MES ED50)” value is 0.4. Further, the ED50 in data set [5] (setting [6]) was found to be 78.5 mg/kg. Besides, the IC50 at NMDA receptors (setting [7]) amounted to 37.1 µM.

In the case of `C=CC1(NC)CC(C)(C)CC(C)(C)C1` [MRZ 2021, N-Methyl-1-ethenyl-3,3,5,5-tetramethylcyclohexylamine], the “Therapeutic index (ataxia ED50 / MES ED50)” value with ataxia (rotarod) was determined as 1.8. Besides, the ED50 at 30 min in data set [1] is 24.7 mg/kg; in data set [4], 21.4 mg/kg. Besides, the inhibitory constant (Ki) in data set [2] turned out to be 6.54 µM. In data set [3], the “Therapeutic index (myorelaxation ED50 / MES ED50)” value is 1.6. Also, the median effective dose (ED50) in data set [5] was 13.6 mg/kg. In addition, half-maximal inhibition on NMDA receptors (IC50) required 12.7 µM.
